Reference: PMC9241302, “Identification of 2-(4-N,N-Dimethylaminophenyl)-5-methyl-1-phenethyl-1H-benzimidazole targeting HIV-1 CA capsid protein and inhibiting HIV-1 replication in cellulo” (BMC Pharmacology & Toxicology, 2022)
Entries after “also recorded” stand apart in the source; their conditions may differ. Like-named read-outs stand apart in the source and are kept apart here.

What was measured:
HIV-1 NL4-3 Ba-L = experiment: microbe, parasite or virus in culture; format: cell-based; conditions: for inhibition of HIV-1 replication (in words): U87-CD4-CCR5 cells, serial 1:2 dilutions from 10 µM
Procedure: Compounds were first dissolved in DMSO to reach a concentration of 20 mM. They were further diluted to a 200 µM working stock and then further diluted to reach a starting concentration of 10 µM in the culture plate. U87-CD4-CCR5 cells were seeded in quadruplicate at 4000 cells/well in a final volume of 100 µL. The next day, 24 µL of the compound was added in serial 1:2 dilutions to the cells. Two hours later, 25 µL of infectious virus (NL4-3 Ba-L) were added to the cells with a TCID50 of 250. AZT at 10 µM was included as an inhibition control. The medium was replenished in the presence of compounds once every 3 to 4 days. The supernatant was collected every 3–4 days and analyzed for virus production by an in-house p24 capture ELISA. IC50 was calculated using “Quest Graph™ IC50 Calculator” (AAT Bioquest, Inc., https://www.aatbio.com/tools/ic50-calculator). Cytotoxicity of the compound was tested on U87-CD4-CCR5 cells in parallel by MTT assay (at the same protocol as in Sect. 3.5 but after 11 days of incubation))[39].

[1] = system: HIV-1 reverse transcription (pol viral DNA); experiment: qPCR quantification of reverse transcribed viral DNA in U87-CD4-CCR5 cells; format: cell-based; conditions: 10 µM, cells preincubated, DNA extracted 48 h post-infection
Procedure: U87-CD4-CCR5 cells were plated in a 24-wells plate at 1.25 × 10^5 cells per well. […] Total DNA was extracted 48 h post-infection using the AllPrep DNA/RNA Mini Kit (Qiagen, Venlo, Netherlands). […] The following program was used in the LightCycler 480 Real-Time PCR System (Roche, Basel, Switzerland): pre-incubation: 95 °C for 3 min, pre-amplification: 2 cycles of 95 °C for 15 s and 49 °C for 15 s, amplification: 40 cycles of 95 °C for 10 s, 58 °C for 20 s, 72 °C for 30 s, melting curve stage: 95 °C for 5 s, 55 °C for 1 min and then 97 °C with acquisition every 10 °C, cooling stage: 40 °C for 10 s. Serial dilution of the 8E5 cell line which contains 1 copy of HIV-1 proviral DNA per cell was used as a standard curve for viral RT products [46]. […] Results were calculated as the number of copies of Pol per copy of β-actin. Statistical analysis was performed using an unpaired, two-tailed, Mann–Whitney test with GraphPad Prism 7.0 software. Tests were performed in quadruplicate, in two independent experiments.

[2] = system: human embryonic kidney cells; set-up: method as in PMID 25512408, PMID 30393786, PMID 24749923, PMID 26492824; conditions: read-out: EC50 in human embryonic kidney cells (cytotoxicity); cited from earlier work
HIV-1 = conditions: Table 1, PF74, literature value; read-out: IC50 in U87; cited from earlier work
HIV-1 CA [3] = conditions: Table 1, PF74, literature value; read-out: Binding affinity; cited from earlier work
U87 cells = conditions: cited from earlier work
human MT4 = conditions: cited from earlier work
human TZM-bl = conditions: cited from earlier work
[4] = human, microsomes; cited from earlier work
HIV-1 CA [5] = target: T1, HIV-1 CA (Human immunodeficiency virus type 1 group M subtype B, UniProt P12493); set-up: the capsid protein (CA) of the Gag polyprotein; made in house; host or cells: Escherichia coli BL21(DE3) pLysS; method as in PMID 30393786; conditions: PF74 data from the literature, same condition, cited from earlier work
[6] = Cytotoxicity in murine macrophages (MTT); format: cell-based; conditions: mouse, J774.1 murine macrophages; Fig. 2 toxicology summary
Procedure: (§1) TZM-bl cells, U87-CD4-CCR5, murine macrophages (J774.1), and THP-1 monocytes (ATCC®TIB-202™) were grown following ATCC recommendations. Cells were seeded in a 96-well plate (10^4 cells in 200 µL culture medium) and incubated at 37 °C in a 5% CO2 atmosphere for 48 h, to allow cell adhesion before drug testing. For stimulation (THP-1 monocytes), cells were incubated with 100 nM of phorbol 12-myristate 13-acetate (PMA) for 48 h. […] A vehicle for control (0.4% DMSO) and negative wells (cells in medium) was used in each test. […] After removing the medium, formazan crystals were dissolved in 180 µL of DMSO and 20µL of MTT buffer (0.1 M glycine, 0.1 M NaCl, 0.5 mM EDTA, pH 10.5), and the absorbance at 560 nm was measured. […] Tests were performed in triplicate, in two independent experiments.

[7] = system: murine macrophages (J774.1); experiment: Cytotoxicity in murine macrophages (MTT); format: cell-based; conditions: 50 µM, 24 h
Procedure: as §1

HIV-1 CA [8] = target: T1, HIV-1 CA; experiment: HIV-1 CA assembly inhibition assay (absorbance at 340 nm); format: biochemical; set-up: the capsid protein (CA) of the Gag polyprotein; made in house; host or cells: Escherichia coli BL21(DE3) pLysS; conditions: compounds at 25 or 50 µM, CA 5 mg/mL, 30 min
Procedure: The CA assembly assay was performed in a final volume of 70 µL in 384-well plates, with a final concentration of 5 mg/mL of purified recombinant HIV-1 CA in Phosphate/NaCl Buffer (NaH2PO4/Na2HPO4 50 mM, NaCl 100 mM, pH 7.4), as described for FIV CA [27, 31]. Absorbance was measured at 340 nm every 30 s in a multiplate reader VarioskanTM Flash Multimode Reader (Thermo Scientific, MA, US) at 37 °C for 30 min. The compounds were tested at a fixed initial dose of 25 or 50 µM (at 0.5% DMSO [v/v]) by adding 1 µL of the concentrated ligand to the well before starting the measurement. The controls were CA at 5 mg/mL in only 0.5% DMSO [v/v] and CA without DMSO. The criteria to select active compounds were the observation of at least 50% of assembly inhibition at these doses, based on the reduction of the OD value at 340 nm at the plateau value compared to the controls.

[9] = Solubility observed in the assays; format: physicochemical; conditions: for solubility at high concentrations (in words): HIV-1 replication assay
mice = conditions: cited from earlier work
[10] = cited from earlier work
[11] = set-up: method as in PMID 25512408, PMID 30393786, PMID 24749923, PMID 26492824; conditions: cited from earlier work
HIV-1 CA [12] = target: T1, HIV-1 CA; experiment: Binding to HIV-1 CA by isothermal microcalorimetry (ITC); set-up: the capsid protein (CA) of the Gag polyprotein; conditions: 200 µM
Procedure: The affinity of compound 696 for HIV-1 CA in vitro was measured by microscale thermophoresis (MST) as described previously for FIV CA [31]. Due to its intrinsic autofluorescence interfering with MST, the binding of compound 314 to CA was measured using isothermal microcalorimetry (ITC) with a Microcal iTC200 calorimeter (Malvern Instruments, Worcestershire, UK). The calorimeter cell contained 200 µL of recombinant HIV-1 CA (kind gifted by Drs Verrier and Coiffier) at 0.78 mg/mL in phosphate buffer (NaH2PO4/Na2HPO4) 50 mM pH 7.5, NaCl 100 mM, 1% DMSO [v/v]. Compound 314 at 200 µM was then injected sequentially into the calorimeter cell (injection #1: 1 µL, injections #2-#20: 2 µL) at 120 s intervals. Data were analyzed using the OriginLab8.5® software according to the manufacturer’s instructions.

For `Cc1cn([C@H]2C[C@H](N=[N+]=[N-])[C@@H](CO)O2)c(=O)[nH]c1=O` [AZT, Zidovudine, reference compound], the p24 production (HIV-1 NL4-3 Ba-L; AZT 10 µM inhibition control) was “No p24 production was detected” and the “inhibition of HIV-1 reverse transcription (pol viral DNA by qPCR)” value [1] was “efficient inhibition”.

For `Cc1[nH]c2ccccc2c1CC(=O)NC(Cc1ccccc1)C(=O)N(C)c1ccccc1` (centres unmarked) [PF74], the EC50 [2] is listed as greater than 50 µM, the IC50 (HIV-1) is listed as 0.06 µM and the Kd (HIV-1 CA [3]) is listed as 0.06 to 0.09 µM. The EC50 (U87 cells) was 75 µM, the EC50 (human MT4) was 70 µM and the EC50 (human TZM-bl) was 47 µM. The EC50 (human TZM-bl; read-out: EC50 in TZM-bl cells (μM) 48hs, Table 1, PF74, 48hs, literature value) was 23.5 µM, the “Metabolic stability, half-life (t1/2)” value [4] was “Human liver microsomes, the half-life (t1/2) less than 1 min” and the “Effect in p24 multimerization in vitro” value (HIV-1 CA [5]) was “accelerated”. The “Effect in p24 multimerization in vitro” value (HIV-1 CA [5]; listed as C00001) was “acceleration”.

For `CCOC(=O)c1n(Cc2ccc(N(C)C)cc2)c2ccc([N+](=O)[O-])cc2[n+]1[O-]` [compound 553], the EC50 [6] was less than 50 µM, the “unspecific cytotoxicity in murine macrophages” value [7] was 100% and the “interference with the assembly of HIV-1 CA in vitro” value (from here on “interference”) (HIV-1 CA [8]) was “interference with the assembly”.

In the case of `C=CCn1c(C(=O)O)cs/c1=N\N=C\c1ccc(/C=N/N=c2\scc(C(=O)O)n2CC=C)cc1` [compound 1310], the “inhibition of HIV-1 replication (in words)” value (shortened to “inhibition … (in words)”) (HIV-1 NL4-3 Ba-L) is reported as “trend towards inhibition”, the EC50 [6] is reported as greater than 50 µM and the “solubility at high concentrations (in words)” value [9] is reported as “solubility problems”. For the same compound, the “interference” value (HIV-1 CA [8]) was “interference with the assembly”.

For `C=CCn1c(-c2ccc3ccccc3c2)cs\c1=N/N=C/C=C/c1ccco1` [compound 305], the EC50 [6] is listed as 50 µM, the “LD50 in mice (oral acute toxicity)” value (mice) is listed as 413 mg/kg and the “AMES Test (mutagenicity)” value [10] is listed as “non mutagenic”. The “interference” value (HIV-1 CA [8]) was “interference with the assembly”.

For `CC(/C=N/N1CCSCC1)=C\c1ccco1` [compound 878], the “inhibition … (in words)” value (HIV-1 NL4-3 Ba-L) was “trend towards inhibition”, the EC50 [6] was 50 µM and the “solubility at high concentrations (in words)” value [9] was “solubility problems”. For the same compound, the “interference” value (HIV-1 CA [8]) was “interference with the assembly”.

With `C=CCn1c(C(=O)N2CCN(C/C=C/c3ccccc3)CC2)cs/c1=N/N=C\C=C\c1ccco1` [compound 314] the “inhibition … (in words)” value (HIV-1 NL4-3 Ba-L) was “clear dose–response inhibition; also recorded: inhibition only at 10 µM”, the EC50 [6] was 40 µM and the solubility ([9]; pH 7.4, CA assembly assay, read-out: insolubility at concentrations) was greater than 10 µM. For the same compound, the “Oral Rat LD50” value (mice; Table S1, 314, not marked as TEST-calculated, Fig. 2 gives mice) was greater than 2000 mg/kg, the “LD50 in mice (oral acute toxicity)” value (mice) was 2000 mg/kg and the “AMES Test (mutagenicity)” value [10] was “non mutagenic; also recorded: no mutagenicity”. The “genotoxicity by Micronucleus Test” value [11] was “Not genotoxic; also recorded: no genotoxicity” and the “specific binding for HIV-1 CA” value (HIV-1 CA [12]) was “no specific binding”.
